Laboratory results taken from patent US20240190890A1, “MK2 INHIBITORS AND USES THEREOF” (Bristol-Myers Squibb Company, priority 2022, published 2024).

Target: p38a activated, mitogen-activated protein kinase-activated protein kinase 2 (MAPKAP-K2 or MK2) enzyme (Homo sapiens (Human), UniProt P49137)
Assay: MK2 Omnia continuous-read kinase assay for compound potency
Format: biochemical
Settings: [MK-2]=0.4 nM, [ATP]=10 μM, [ST3-Sox]=10 μM; room temperature
How it was run: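 Continuous Sox-peptide fluorescence read (ex360/em485) every 71 s over 2 h at room temperature. Reactions: 10 μM each of ATP (at apparent Km) and S/T3-Sox, 0.4 nM p38a-activated MK2, pH 7.5 Tris/MgCl2 buffer. Initial rates yield % inhibition and IC50; single-exponential kobs values yield apparent kinact/KI.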

Sequence of p38a activated, mitogen-activated protein kinase-activated protein kinase 2 (MAPKAP-K2 or MK2) enzyme (P49137 whole entry): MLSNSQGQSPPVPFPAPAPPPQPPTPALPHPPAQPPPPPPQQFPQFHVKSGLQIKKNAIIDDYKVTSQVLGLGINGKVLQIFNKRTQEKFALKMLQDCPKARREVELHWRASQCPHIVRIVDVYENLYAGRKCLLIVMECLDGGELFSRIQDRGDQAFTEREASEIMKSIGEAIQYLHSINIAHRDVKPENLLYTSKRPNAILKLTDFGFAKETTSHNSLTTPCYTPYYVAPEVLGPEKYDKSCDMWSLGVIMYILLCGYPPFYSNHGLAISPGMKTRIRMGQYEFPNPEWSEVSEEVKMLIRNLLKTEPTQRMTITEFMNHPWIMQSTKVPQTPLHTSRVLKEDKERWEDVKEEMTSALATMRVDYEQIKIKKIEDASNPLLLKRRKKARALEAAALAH

| SMILES | IC50 [nM] |
| --- | --- |
| C=Cc1cnc(C)c(-c2ccc3c(ccc4sc5c(c43)NC[C@@H](C)NC5=O)n2)n1 [Example I-181, (R)-10-methyl-3-(3-methyl-6-vinylpyrazin-2-yl)-9,10,11,12-tetrahydro-8H-[1,4]diazepino[5′,6′:4,5]thieno[3,2-f]quinolin-8-one] | 39 |
| C=Cc1ncc(COCC)c(-c2ccc3c(ccc4sc5c(c43)NC[C@@H](C)NC5=O)n2)n1 [Example I-5, (R)-3-(5-(ethoxymethyl)-2-vinylpyrimidin-4-yl)-10-methyl-9,10,11,12-tetrahydro-8H-[1,4]diazepino[5′,6′:4,5]thieno[3,2-f]quinolin-8-one] | 7 |
| C=C(CN(C)C)c1cc(-c2ccc3c(ccc4sc5c(c43)NC[C@@H](C)NC5=O)n2)ccn1 [Example I-117, (R)-3-(2-(3-(dimethylamino)prop-1-en-2-yl)pyridin-4-yl)-10-methyl-9,10,11,12-tetrahydro-8H-[1,4]diazepino[5′,6′:4,5]thieno[3,2-f]quinolin-8-one] | 6 |
| C=Cc1nc(C)cn1-c1ccc2c(ccc3sc4c(c32)NC[C@@H](C)NC4=O)n1 [Example I-206, (R)-10-methyl-3-(4-methyl-2-vinyl-1H-imidazol-1-yl)-9,10,11,12-tetrahydro-8H-[1,4]diazepino[5′,6′:4,5]thieno[3,2-f]quinolin-8-one] | 4 |
| C=Cc1cncc(-c2ccc3c(ccc4sc5c(c43)NC[C@@H](C)NC5=O)n2)n1 [Example I-163, (R)-10-methyl-3-(6-vinylpyrazin-2-yl)-9,10,11,12-tetrahydro-8H-[1,4]diazepino[5′,6′:4,5]thieno[3,2-f]quinolin-8-one] | 109 |

The next lines start with the values.

| IC50 [nM] | SMILES |
| --- | --- |
| 6 | C=Cc1cc(-c2ccc3c(ccc4sc5c(c43)NC[C@@H](C)NC5=O)n2)cc(N2CC3(COC3)C2)n1 [Example I-238, (R)-3-(2-(2-oxa-6-azaspiro[3.3]heptan-6-yl)-6-vinylpyridin-4-yl)-10-methyl-9,10,11,12-tetrahydro-8H-[1,4]diazepino[5′,6′:4,5]thieno[3,2-f]quinolin-8-one] |
| 418 | C=Cc1noc(C)c1-c1ccc2c(ccc3sc4c(c32)NC[C@@H](C)NC4=O)n1 [Example I-227, (R)-10-methyl-3-(5-methyl-3-vinylisoxazol-4-yl)-9,10,11,12-tetrahydro-8H-[1,4]diazepino[5′,6′:4,5]thieno[3,2-f]quinolin-8-one] |
| 1000 | [2H]C([2H])([2H])C(O)(c1cnc(C=C)cc1-c1ccc2c(ccc3sc4c(c32)NC[C@@H](C)NC4=O)n1)C([2H])([2H])[2H] [Example I-258, (R)-3-(5-(2-hydroxypropan-2-yl-1,1,1,3,3,3-d6)-2-vinylpyridin-4-yl)-10-methyl-9,10,11,12-tetrahydro-8H-[1,4]diazepino[5′,6′:4,5]thieno[3,2-f]quinolin-8-one] |
